Laboratory results: US11919897B2, “Inhibitors of human immunodeficiency virus replication” (VIIV HEALTHCARE UK (No. 5) LIMITED, priority 2018, dated 2024)

What was measured:
[1] = system: recombinant NL4-3 virus (nef section replaced with Renilla luciferase gene) in MT-2 cells; experiment: HIV cell culture assay (antiviral activity, luciferase readout in infected MT-2 cells); format: cell-based; conditions: Renilla, NL43
Procedure: HIV cell culture assay-MT-2 cells, 293T cells and the proviral DNA clone of NL4-3 virus were obtained from the NIH AIDS Research and Reference Reagent Program. MT-2 cells were propagated in RPMI 1640 media supplemented with 10% heat inactivated fetal bovine serum (FBS), 100 μg/ml penicillin G and up to 100 units/mL streptomycin. The 293T cells were propagated in DMEM media supplemented with 10% heat inactivated FBS, 100 μg/mL penicillin G and 100 μg/mL streptomycin. A recombinant NL4-3 proviral clone, in which a section of the nef gene was replaced with the Renilla luciferase gene, was used to make the reference virus used in these studies. The recombinant virus was prepared through transfection of the recombinant NL4-3 proviral clone into 293T cells using Transit-293 Transfection Reagent from Minis Bio LLC (Madison, WI). Supernatent was harvested after 2-3 days and the amount of virus present was titered in MT-2 cells using luciferase enzyme activity as a marker by measuring luciferase enzyme activity. Luciferase was quantitated using the EnduRen Live Cell Substrate from Promega (Madison, WI). Antiviral activities of compounds toward the recombinant virus were quantified by measuring luciferase activity in MT-2 cells infected for 4-5 days with the recombinant virus in the presence of serial dilutions of the compound.
The 50% effective concentration (EC50) was calculated by using the exponential form of the median effect equation where (Fa)=1/[1+(ED50/drug conc.)m] (Johnson V A, Byington R T. Infectivity Assay. In Techniques in HIV Research. ed. Aldovini A, Walker B D. 71-76. New York: Stockton Press. 1990).

[2] = Compound cytotoxicity, XTT-based colorimetric assay; format: cell-based; conditions: human; uninfected MT2 cells, day 4, XTT assay
Procedure: Compound cytotoxicity and the corresponding CC50 values were determined using the same protocol as described in the antiviral assay except that uninfected cells were used. Cytotoxicity was assessed on day 4 in uninfected MT2 cells by using an XTT (2,3-bis[2-Methoxy-4-nitro-5-sulfophenyl]-2H-tetrazolium-5-carboxyanilide inner salt)-based colorimetric assay (Sigma-Aldrich, St Louis, Mo.).

Row | SMILES | EC50 [1] | CC50 at 4 days [2]
1 | Cn1nc(NS(C)(=O)=O)c2c(Cl)ccc(-n3c([C@H](Cc4cc(F)cc(F)c4)NC(=O)Cn4nc(C(F)F)c5c4C(F)(F)[C@@H]4C[C@H]54)nc4nc(O)ccc4c3=O)c21 (atropisomer, axis not shown; (P)) [Example 1, N—((S)-1-((3P)-3-(4-chloro-1-methyl-3-(methylsulfonamido)-1H-indazol-7-yl)-7-hydroxy-4-oxo-3,4-dihydropyrido[2,3-d]pyrimidin-2-yl)-2-(3,5-difluorophenyl)ethyl)-2-((3bS,4aR)-3-(difluoromethyl)-5,5-difluoro-3b,4,4a,5-tetrahydro-1H-cyclopropa[3,4]cyclopenta[1,2-c]pyrazol-1-yl)acetamide] | 2.7 nM | > 1000 nM
2 | Cn1nc(NS(C)(=O)=O)c2c(Cl)ccc(-n3c([C@H](Cc4cc(F)cc(F)c4)NC(=O)Cn4nc(C(F)F)c5c4C(F)(F)[C@@H]4C[C@H]54)nc4nc(OCC5CCCC5)ccc4c3=O)c21 (atropisomer, axis not shown; (P)) [Example 2, N—((S)-1-((3P)-3-(4-chloro-1-methyl-3-(methylsulfonamido)-1H-indazol-7-yl)-7-(cyclopentylmethoxy)-4-oxo-3,4-dihydropyrido[2,3-d]pyrimidin-2-yl)-2-(3,5-difluorophenyl)ethyl)-2-((3bS,4aR)-3-(difluoromethyl)-5,5-difluoro-3b,4,4a,5-tetrahydro-1H-cyclopropa[3,4]cyclopenta[1,2-c]pyrazol-1-yl)acetamide] | 0.06 nM | > 1000 nM
3 | Cn1nc(NS(C)(=O)=O)c2c(Cl)ccc(-n3c([C@H](Cc4cc(F)cc(F)c4)NC(=O)Cn4nc(C(F)F)c5c4C(F)(F)[C@@H]4C[C@H]54)nc4nc(OCCC(C)(C)C)ccc4c3=O)c21 (atropisomer, axis not shown; (P)) [Example 3, N—((S)-1-((3P)-3-(4-chloro-1-methyl-3-(methylsulfonamido)-1H-indazol-7-yl)-7-(3,3-dimethylbutoxy)-4-oxo-3,4-dihydropyrido[2,3-d]pyrimidin-2-yl)-2-(3,5-difluorophenyl)ethyl)-2-((3bS,4aR)-3-(difluoromethyl)-5,5-difluoro-3b,4,4a,5-tetrahydro-1H-cyclopropa[3,4]cyclopenta[1,2-c]pyrazol-1-yl)acetamide] | 0.06 nM | > 1000 nM
4 | CCC(C)(C)CCOc1ccc2c(=O)n(-c3ccc(Cl)c4c(NS(C)(=O)=O)nn(C)c34)c([C@H](Cc3cc(F)cc(F)c3)NC(=O)Cn3nc(C(F)F)c4c3C(F)(F)[C@@H]3C[C@H]43)nc2n1 (atropisomer, axis not shown; (P)) [Example 13, N—((S)-1-((3P)-3-(4-chloro-1-methyl-3-(methylsulfonamido)-1H-indazol-7-yl)-7-((3,3-dimethylpentyl)oxy)-4-oxo-3,4-dihydropyrido[2,3-d]pyrimidin-2-yl)-2-(3,5-difluorophenyl)ethyl)-2-((3bS,4aR)-3-(difluoromethyl)-5,5-difluoro-3b,4,4a,5-tetrahydro-1H-cyclopropa[3,4]cyclopenta[1,2-c]pyrazol-1-yl)acetamide] | 0.17 nM | 
5 | Cn1nc(NS(C)(=O)=O)c2c(Cl)ccc(-n3c([C@H](Cc4cc(F)cc(F)c4)NC(=O)Cn4nc(C(F)F)c5c4C(F)(F)[C@@H]4C[C@H]54)nc4nc(OCCCC(C)(C)C)ccc4c3=O)c21 (atropisomer, axis not shown; (P)) [Example 19] | 0.11 nM | 
